From patent US6525059B1, “Substituted pyrazoles as p38 kinase inhibitors” (G. D. Searle & Company, priority 1998, dated 2003)
Structures can show the parent of a compound that is named as a salt. Where two headings read alike, the source gives them in different places.

Legend:
TNF-α [1] = assay: Rat assay: LPS-challenged rats, serum TNF-α by ELISA; assay type: in vivo
Description: The efficacy of the novel compounds in blocking the production of TNF also was evaluated using a model based on rats challenged with LPS. Male Harlen Lewis rats [Sprague Dawley Co.] were used in this model. Each rat weighed approximately 300 g and was fasted overnight prior to testing. Compounds administration was typically by oral gavage (although intraperitoneal, subcutaneous and intravenous administration were also used in a few instances) 1 to 24 hours prior to the LPS challenge. Rats were administered 30 μg/kg LPS [salmonella typhosa, Sigma Co.] intravenously via the tail vein. Blood was collected via heart puncture 1 hour after the LPS challenge. Serum samples were stored at −20° C. until quantitative analysis of TNF-α by Enzyme Linked-Immuno-Sorbent Assay (“ELISA”) [Biosource]. Additional details of the assay are set forth in Perretti, M., et al., Br. J. Pharmacol. (1993), 110, 868-874, which is incorporated by reference in this application.
In vivo assessment of the ability of the compounds to inhibit LPS-stimulated TNF release in the rat is shown in the column identified as:
wherein in the dose is milligram per kilogram (mpk) administered by oral gavage and the predose time indicates the number of hours before LPS challenge when the compound is administered.

human p38 kinase alpha = target: T1, human p38 kinase alpha (Homo sapiens, UniProt Q16539); assay: p38 kinase in vitro assay, phosphorylation of biotinylated PHAS-I with gamma 32P-ATP; assay type: biochemical; settings: read-out: P38 alpha kinase IC50
T1 construct: The coding region of the human p38a cDNA was obtained by PCR-amplification from RNA isolated from the human monocyte cell line THP.1; GST (N); made in house; host or cells: E. coli DH10B
Outline: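 Radiometric filter-capture read-out: streptavidin plates trap biotin-PHAS-I labelled by activated (MKK6) human p38α from γ-32P-ATP. Buffer 25 mM HEPES pH 7.5, 10 mM magnesium acetate, 50 μM cold ATP; reactions 1 h or overnight at 30 °C; inhibitors 10-fold dilutions 100 to 0.001 μM, triplicates, 1% DMSO.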

TNF-α [2] = assay: LPS stimulation of TNF production by U937 cells; assay type: cell-based, human; settings: for inhibition at 1 µM: Homo sapiens, U-937, @ 1.0 uM, read-out: U937 Cell % inhib @ conc.; for U937 Cell % inhib @ conc.: @ 1.0 uM
Outline: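 PMA-differentiated human U937 cells (20 ng/ml PMA, 24 h, then 24-48 h rest) at 2 million cells/ml, 0.1% DMSO final, stimulated with E. coli LPS (100 ng/ml final) for 4 h at 37° C. TNF-α in medium measured by ELISA; IC50 in μM.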

[3] = 3 mpk oral gavage, -4h before LPS

T1 sequence (Q16539 whole entry): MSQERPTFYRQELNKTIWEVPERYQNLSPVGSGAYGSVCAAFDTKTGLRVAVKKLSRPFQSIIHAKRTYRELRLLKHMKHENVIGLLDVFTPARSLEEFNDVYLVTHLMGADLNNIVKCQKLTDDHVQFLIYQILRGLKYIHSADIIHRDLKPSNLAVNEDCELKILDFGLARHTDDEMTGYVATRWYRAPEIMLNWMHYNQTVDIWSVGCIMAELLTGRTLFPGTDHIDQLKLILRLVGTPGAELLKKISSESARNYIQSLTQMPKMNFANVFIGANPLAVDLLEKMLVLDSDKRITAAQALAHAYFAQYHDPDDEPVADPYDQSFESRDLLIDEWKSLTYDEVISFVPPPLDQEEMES

Row | IC50 (human p38 kinase alpha) | Compound | inhibition at 1 µM (TNF-α [2]) | further results
1 |  | 5-[2-(1,1-DIMETHYL)AMINOETHYL]-4-(4-PYRIDYL)-3-(4-FLUOROPHENYL)PYRAZOLE [Example C-114] |  | Rat LPS Model % Inhibition @ dose @ predose time (TNF-α [1]; 5 mpk oral gavage, 4 h before LPS challenge): 39% @ 5 mpk @ −4h
2 |  | O=C(O)CCC(=O)N1CCN(c2n[nH]c(-c3ccc(Cl)cc3)c2-c2ccncc2)CC1 [A-321 (monosodium salt dihydrate), 4-[5-(4-chlorophenyl)-4-(4-pyridinyl)-1H-pyrazol-3-yl]-γ-oxo-1-piperazinebutanoic acid, monosodium salt dihydrate] |  | inhibition in vivo at 3 mg/kg (TNF-α [1]; Rattus norvegicus, po, read-out: Rat LPS Assay % Inhibition): 14%
3 |  | Fc1ccc(-c2n[nH]cc2-c2ccnc(NCCN3CCC(N4CCCCC4)CC3)c2)cc1 [Example A-350, N-(2-[1,4′-bipiperidin]-1′-ylethyl)-4-[3-(4-fluorophenyl)-1H-pyrazol-4-yl]-2-pyridinamine] |  | inhibition in vivo at 20 mg/kg (TNF-α [1]; Rattus norvegicus, po, Table 9, dose 20 mg/kg): 65%
4 |  | C[C@@H](NS(=O)(=O)N(C)C)c1[nH]nc(-c2ccc(F)cc2)c1-c1ccncc1 [Example B-0487] |  | inhibition in vivo at 3 mg/kg (TNF-α [1]; Rattus norvegicus, po, -4 h, 3 mpk oral gavage, -4h before LPS, read-out: Rat LPS Model % inhib @ dose @ predose time): 54%
5 | 830 nM | C[C@@H](NC(=O)c1cc2ccccc2s1)c1[nH]nc(-c2ccc(F)cc2)c1-c1ccncc1 [Example B-0496] | 16% | 
6 | 330 nM | C[C@@H](NC(=O)c1cc(Cl)cc(Cl)c1)c1[nH]nc(-c2ccc(F)cc2)c1-c1ccncc1 [Example B-0498] | 11% | 
7 | 65 nM | C[C@@H](NC(=O)c1cc(F)cc(F)c1)c1[nH]nc(-c2ccc(F)cc2)c1-c1ccncc1 [Example B-0502] | 48% | 
8 | 160 nM | C[C@@H](NC(=O)c1c(F)ccc(F)c1F)c1[nH]nc(-c2ccc(F)cc2)c1-c1ccncc1 [Example B-0503] | 73% | 
9 | 400 nM | C[C@@H](NC(=O)c1cccc(Cl)c1Cl)c1[nH]nc(-c2ccc(F)cc2)c1-c1ccncc1 [Example B-0504] | 43% | 
10 | 940 nM | C[C@@H](NC(=O)c1cc(C(F)(F)F)ccc1F)c1[nH]nc(-c2ccc(F)cc2)c1-c1ccncc1 [Example B-0506] | 43% | 
11 | 180 nM | C[C@@H](NC(=O)c1c(F)cc(F)cc1F)c1[nH]nc(-c2ccc(F)cc2)c1-c1ccncc1 [Example B-0507] | 75% | 
12 | 2000 nM | C[C@@H](NC(=O)c1ccc(C(F)(F)F)cc1F)c1[nH]nc(-c2ccc(F)cc2)c1-c1ccncc1 [Example B-0508] | 48% | 
13 | 100 nM | C[C@@H](NC(=O)c1c(F)cccc1C(F)(F)F)c1[nH]nc(-c2ccc(F)cc2)c1-c1ccncc1 [Example B-0509] | 86% | 
14 | 7 nM | C[C@@H](NC(=O)c1ccc(F)cc1C(F)(F)F)c1[nH]nc(-c2ccc(F)cc2)c1-c1ccncc1 [Example B-0511] | 90% | 
15 | 720 nM | C[C@@H](NC(=O)c1cc(F)cc(C(F)(F)F)c1)c1[nH]nc(-c2ccc(F)cc2)c1-c1ccncc1 [Example B-0513] | 52% | 
16 | 140 nM | C[C@@H](NC(=O)c1ccccc1Cl)c1[nH]nc(-c2ccc(F)cc2)c1-c1ccncc1 [Example B-0514] | 87% | 
17 | 94 nM | C[C@@H](NC(=O)c1cccc(F)c1)c1[nH]nc(-c2ccc(F)cc2)c1-c1ccncc1 [Example B-0517] | 52% | 
18 | 43 nM | C[C@@H](NC(=O)c1c(Cl)cccc1Cl)c1[nH]nc(-c2ccc(F)cc2)c1-c1ccncc1 [Example B-0519] | 87% | 
19 | 400 nM | C[C@@H](NC(=O)c1cc(F)ccc1F)c1[nH]nc(-c2ccc(F)cc2)c1-c1ccncc1 [Example B-0520] | 67% | 
20 | 1370 nM | C[C@@H](NC(=O)c1cc(F)c(F)cc1F)c1[nH]nc(-c2ccc(F)cc2)c1-c1ccncc1 [Example B-0521] | 52% | 
21 | 150 nM | C[C@@H](NC(=O)c1ccccc1F)c1[nH]nc(-c2ccc(F)cc2)c1-c1ccncc1 [Example B-0522] | 75% | 

Row | IC50 (human p38 kinase alpha) | Compound | inhibition at 1 µM (TNF-α [2]) | further results
22 | 190 nM | C[C@@H](NC(=O)c1c(F)cccc1F)c1[nH]nc(-c2ccc(F)cc2)c1-c1ccncc1 [Example B-0523] | 83% | 
23 | 31 nM | C[C@@H](NC(=O)c1ccccc1Br)c1[nH]nc(-c2ccc(F)cc2)c1-c1ccncc1 [Example B-0526] | 87% | 
24 | 1090 nM | C[C@@H](NC(=O)c1ccc(C(F)(F)F)cc1)c1[nH]nc(-c2ccc(F)cc2)c1-c1ccncc1 [Example B-0527] | 63% | 
25 | 140 nM | C[C@@H](NC(=O)c1cccs1)c1[nH]nc(-c2ccc(F)cc2)c1-c1ccncc1 [Example B-0528] | 70% | 
26 |  | CC(NS(=O)(=O)c1ccc(F)cc1)c1[nH]nc(-c2ccc(F)cc2)c1-c1ccncc1 (centres unmarked) [Example B-0562] |  | Rat LPS Model % inhib @ dose @ predose time (TNF-α [1]; [3]): 5% @ 3 mpk @ -4h
27 |  | CC(NS(=O)(=O)Cc1ccccc1)c1[nH]nc(-c2ccc(F)cc2)c1-c1ccncc1 (centres unmarked) [Example B-0566] |  | Rat LPS Model % inhib @ dose @ predose time (TNF-α [1]; [3]): 0% @ 3 mpk @ -4h
28 |  | COc1ccc(S(=O)(=O)NC(C)c2[nH]nc(-c3ccc(F)cc3)c2-c2ccncc2)cc1 (centres unmarked) [Example B-0574] |  | Rat LPS Model % inhib @ dose @ predose time (TNF-α [1]; [3]): 37% @ 3 mpk @ -4h
29 |  | Cc1ccc(S(=O)(=O)NC(C)c2[nH]nc(-c3ccc(F)cc3)c2-c2ccncc2)cc1 (centres unmarked) [Example B-0576] |  | Rat LPS Model % inhib @ dose @ predose time (TNF-α [1]; [3]): 65% @ 3 mpk @ -4h
30 | 2 nM | CC(NC(=O)Cc1cccs1)c1[nH]nc(-c2ccc(F)cc2)c1-c1ccncc1 (centres unmarked) [Example B-0600] |  | U937 Cell % inhib @ conc. (TNF-α [2]): 28.0% @ 1.0 uM
31 |  | CC(NC(=O)C(C)(C)C)c1[nH]nc(-c2ccc(F)cc2)c1-c1ccncc1 (centres unmarked) [Example B-0601] |  | Rat LPS Model % inhib @ dose @ predose time (TNF-α [1]; [3]): 43% @ 3 mpk %-4h
32 |  | CC(NS(=O)(=O)c1cccc(Cl)c1)c1[nH]nc(-c2ccc(F)cc2)c1-c1ccncc1 (centres unmarked) [Example B-0639] |  | Rat LPS Model % inhib @ dose @ predose time (TNF-α [1]; [3]): 50% @ 3 mpk @ -4h
33 |  | CC(NS(=O)(=O)c1ccc(F)c(Cl)c1)c1[nH]nc(-c2ccc(F)cc2)c1-c1ccncc1 (centres unmarked) [Example B-0643] |  | Rat LPS Model % inhib @ dose @ predose time (TNF-α [1]; [3]): 0% @ 3 mpk @ -4h
34 |  | CC(NS(=O)(=O)c1ccc(Cl)s1)c1[nH]nc(-c2ccc(F)cc2)c1-c1ccncc1 (centres unmarked) [Example B-0650] |  | Rat LPS Model % inhib @ dose @ predose time (TNF-α [1]; [3]): 8% @ 3 mpk @ -4h
35 |  | CC(NS(=O)(=O)c1ccc(C#N)cc1)c1[nH]nc(-c2ccc(F)cc2)c1-c1ccncc1 (centres unmarked) [Example B-0656] |  | Rat LPS Model % inhib @ dose @ predose time (TNF-α [1]; [3]): 28% @ 3 mpk @ -4h
36 | 6380 nM | Cc1ccc(C(=O)NC(C)c2[nH]nc(-c3ccc(F)cc3)c2-c2ccncc2)cc1 (centres unmarked) [Example B-0671] |  | U937 Cell % inhib @ conc. (TNF-α [2]): 36.0% @ 1.0 uM
37 | 27100 nM | CC(NC(=O)c1cc(F)cc(C(F)(F)F)c1)c1[nH]nc(-c2ccc(F)cc2)c1-c1ccncc1 (centres unmarked) [Example B-0690] |  | U937 Cell % inhib @ conc. (TNF-α [2]): 36.0% @ 1.0 uM
38 | 10 nM | CC(C)(C)C(=O)NC(Cc1ccccc1)c1[nH]nc(-c2ccc(F)cc2)c1-c1ccncc1 (centres unmarked) [Example B-0746] |  | U937 Cell % inhib @ conc. (TNF-α [2]): 22.0% @ 1.0 uM
39 | 10 nM | CCCS(=O)(=O)NC(Cc1ccccc1)c1[nH]nc(-c2ccc(F)cc2)c1-c1ccncc1 (centres unmarked) [Example B-0760] |  | U937 Cell % inhib @ conc. (TNF-α [2]): 13.0% @ 1.0 uM
40 | 300 nM | CC(C)(C)C(=O)NC(Cc1ccccc1)c1[nH]nc(-c2ccc(F)cc2)c1-c1ccncc1 (centres unmarked) [Example B-0791] |  | IC50 (TNF-α [2]; TNF production, LPS-stimulated human U937 cells, read-out: U937 Cell IC50): > 1000 nM
41 |  | O=C(c1ccc(F)cc1)N1CCC(c2[nH]nc(-c3ccc(F)cc3)c2-c2ccncc2)CC1 [Example B-1360] |  | Rat LPS Model % inhib @ dose @ predose time (TNF-α [1]; 3 mpk oral gavage, 4 h before LPS challenge): 54% @ 3 mpk @ -4h
